Reference: PubChem BioAssay (NCI)
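Dose response: 5 concentrations. Exposure: 48 h. Format: 96-well plates. Endpoint: linear interpolation; highest concentration if not reached. At the TGI there is no net growth.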

Experiments:
Experiment in all cases: NCI anticancer screen, dose series, 48 h
A498 renal = system: A498 renal
A549 NSCLC = system: A549 NSCLC
ACHN renal = system: ACHN renal
BT-549 breast = system: BT-549 breast
CAKI-1 renal = system: CAKI-1 renal
COLO 205 colon = system: COLO 205 colon
DU-145 prostate = system: DU-145 prostate
EKVX NSCLC = system: EKVX NSCLC
HCT-116 colon = system: HCT-116 colon
HCT-15 colon = system: HCT-15 colon
HL-60(TB) leukemia = system: HL-60(TB) leukemia
HOP-62 NSCLC = system: HOP-62 NSCLC
HOP-92 NSCLC = system: HOP-92 NSCLC
HS 578T breast = system: HS 578T breast
HT29 colon = system: HT29 colon
IGROV1 ovarian = system: IGROV1 ovarian
K-562 leukemia = system: K-562 leukemia
KM12 colon = system: KM12 colon
LOX IMVI melanoma = system: LOX IMVI melanoma
M14 melanoma = system: M14 melanoma
MALME-3M melanoma = system: MALME-3M melanoma
MCF7 breast = system: MCF7 breast
MDA-MB-231 breast = system: MDA-MB-231 breast
MDA-MB-435 = system: MDA-MB-435
MDA-N = system: MDA-N
MOLT-4 leukemia = system: MOLT-4 leukemia
NCI-H23 lung = system: NCI-H23 lung
NCI-H460 lung = system: NCI-H460 lung
NCI-H522 lung = system: NCI-H522 lung
NCI/ADR-RES ovarian = system: NCI/ADR-RES ovarian
OVCAR-3 ovarian = system: OVCAR-3 ovarian
OVCAR-4 ovarian = system: OVCAR-4 ovarian
OVCAR-5 ovarian = system: OVCAR-5 ovarian
OVCAR-8 ovarian = system: OVCAR-8 ovarian
PC-3 prostate = system: PC-3 prostate
RPMI-8226 leukemia = system: RPMI-8226 leukemia
RXF 393 renal = system: RXF 393 renal
SF-268 CNS = system: SF-268 CNS
SF-295 CNS = system: SF-295 CNS
SF-539 CNS = system: SF-539 CNS
SK-MEL-2 melanoma = system: SK-MEL-2 melanoma
SK-MEL-28 melanoma = system: SK-MEL-28 melanoma
SK-MEL-5 melanoma = system: SK-MEL-5 melanoma
SK-OV-3 ovarian = system: SK-OV-3 ovarian
SN12C renal = system: SN12C renal
SNB-19 CNS = system: SNB-19 CNS
SNB-75 CNS = system: SNB-75 CNS
SR leukemia = system: SR leukemia
SW-620 colon = system: SW-620 colon
T-47D breast = system: T-47D breast
TK-10 renal = system: TK-10 renal
U251 CNS = system: U251 CNS
UACC-257 melanoma = system: UACC-257 melanoma
UACC-62 melanoma = system: UACC-62 melanoma
UO-31 renal = system: UO-31 renal
786-0 renal = system: 786-0 renal
CCRF-CEM leukemia = system: CCRF-CEM leukemia
NCI-H226 lung = system: NCI-H226 lung
HCC-2998 colon = system: HCC-2998 colon

Cn1c(-c2ccccc2)c2cc3nc4ccccc4nc3cc2c1-c1ccccc1
TGI (A498 renal): 59.5 µM | TGI (A549 NSCLC): > 100 µM | TGI (ACHN renal): 83.3 µM | TGI (BT-549 breast): 80.8 µM | TGI (CAKI-1 renal): > 100 µM | TGI (COLO 205 colon): 9.09 µM | TGI (DU-145 prostate): > 100 µM | TGI (EKVX NSCLC): > 100 µM | TGI (HCT-116 colon): > 100 µM | TGI (HCT-15 colon): 53.4 µM | TGI (HL-60(TB) leukemia): 52.6 µM | TGI (HOP-62 NSCLC): 35.9 µM | TGI (HOP-92 NSCLC): 94.2 µM | TGI (HS 578T breast): 45.9 µM | TGI (HT29 colon): > 100 µM | TGI (IGROV1 ovarian): > 100 µM | TGI (K-562 leukemia): 82.6 µM | TGI (KM12 colon): 72.1 µM | TGI (LOX IMVI melanoma): 65 µM | TGI (M14 melanoma): 31.3 µM | TGI (MALME-3M melanoma): 78.7 µM | TGI (MCF7 breast): 47.2 µM | TGI (MDA-MB-231 breast): > 100 µM | TGI (MDA-MB-435): 77.4 µM | TGI (MDA-N): 38.9 µM | TGI (MOLT-4 leukemia): 64.6 µM | TGI (NCI-H23 lung): 44.1 µM | TGI (NCI-H460 lung): 25.2 µM | TGI (NCI-H522 lung): 40.3 µM | TGI (NCI/ADR-RES ovarian): > 100 µM | TGI (OVCAR-3 ovarian): > 100 µM | TGI (OVCAR-4 ovarian): > 100 µM | TGI (OVCAR-5 ovarian): > 100 µM | TGI (OVCAR-8 ovarian): > 100 µM | TGI (PC-3 prostate): 70.4 µM | TGI (RPMI-8226 leukemia): 30.1 µM | TGI (RXF 393 renal): 54.4 µM | TGI (SF-268 CNS): 86.9 µM | TGI (SF-295 CNS): 89.8 µM | TGI (SF-539 CNS): 41.2 µM | TGI (SK-MEL-2 melanoma): 60.3 µM | TGI (SK-MEL-28 melanoma): > 100 µM | TGI (SK-MEL-5 melanoma): 9.71 µM | TGI (SK-OV-3 ovarian): 64.9 µM | TGI (SN12C renal): 51.3 µM | TGI (SNB-19 CNS): > 100 µM | TGI (SNB-75 CNS): > 100 µM | TGI (SR leukemia): 24.2 µM | TGI (SW-620 colon): 92.5 µM | TGI (T-47D breast): > 100 µM | TGI (TK-10 renal): > 100 µM | TGI (U251 CNS): > 100 µM | TGI (UACC-257 melanoma): > 100 µM | TGI (UACC-62 melanoma): 30.2 µM | TGI (UO-31 renal): > 100 µM

COc1ccc(NC(=O)CC(=O)NN)cc1
TGI (786-0 renal): > 100 µM | TGI (A549 NSCLC): > 100 µM | TGI (ACHN renal): > 100 µM | TGI (BT-549 breast): > 100 µM | TGI (CAKI-1 renal): > 100 µM | TGI (CCRF-CEM leukemia): > 100 µM | TGI (COLO 205 colon): > 100 µM | TGI (DU-145 prostate): > 100 µM | TGI (EKVX NSCLC): > 100 µM | TGI (HCT-116 colon): > 100 µM | TGI (HCT-15 colon): > 100 µM | TGI (HL-60(TB) leukemia): > 100 µM | TGI (HOP-62 NSCLC): > 100 µM | TGI (HOP-92 NSCLC): > 100 µM | TGI (HS 578T breast): > 100 µM | TGI (HT29 colon): > 100 µM | TGI (IGROV1 ovarian): > 100 µM | TGI (K-562 leukemia): > 100 µM | TGI (KM12 colon): > 100 µM | TGI (LOX IMVI melanoma): > 100 µM | TGI (MALME-3M melanoma): > 100 µM | TGI (MCF7 breast): > 100 µM | TGI (MDA-MB-231 breast): > 100 µM | TGI (MDA-MB-435): > 100 µM | TGI (MDA-N): > 100 µM | TGI (MOLT-4 leukemia): > 100 µM | TGI (NCI-H226 lung): > 100 µM | TGI (NCI-H23 lung): > 100 µM | TGI (NCI-H460 lung): > 100 µM | TGI (NCI-H522 lung): > 100 µM | TGI (NCI/ADR-RES ovarian): > 100 µM | TGI (OVCAR-3 ovarian): > 100 µM | TGI (OVCAR-4 ovarian): > 100 µM | TGI (OVCAR-5 ovarian): > 100 µM | TGI (OVCAR-8 ovarian): > 100 µM | TGI (PC-3 prostate): > 100 µM | TGI (RPMI-8226 leukemia): > 100 µM | TGI (RXF 393 renal): > 100 µM | TGI (SF-268 CNS): > 100 µM | TGI (SF-295 CNS): > 100 µM | TGI (SF-539 CNS): > 100 µM | TGI (SK-MEL-2 melanoma): > 100 µM | TGI (SK-MEL-5 melanoma): > 100 µM | TGI (SK-OV-3 ovarian): > 100 µM | TGI (SN12C renal): > 100 µM | TGI (SNB-19 CNS): > 100 µM | TGI (SNB-75 CNS): > 100 µM | TGI (SR leukemia): > 100 µM | TGI (SW-620 colon): > 100 µM | TGI (T-47D breast): > 100 µM | TGI (TK-10 renal): > 100 µM | TGI (U251 CNS): > 100 µM | TGI (UACC-257 melanoma): > 100 µM | TGI (UACC-62 melanoma): > 100 µM | TGI (UO-31 renal): > 100 µM

CN(C)c1ccc(/C=C(\C#N)c2nc(-c3cc4ccccc4oc3=O)cs2)cc1
TGI (786-0 renal): 21 µM | TGI (A549 NSCLC): > 50 µM | TGI (ACHN renal): > 50 µM | TGI (BT-549 breast): 8.16 µM | TGI (CAKI-1 renal): > 50 µM | TGI (CCRF-CEM leukemia): > 50 µM | TGI (COLO 205 colon): > 50 µM | TGI (DU-145 prostate): > 50 µM | TGI (EKVX NSCLC): > 50 µM | TGI (HCC-2998 colon): > 50 µM | TGI (HCT-116 colon): > 50 µM | TGI (HCT-15 colon): > 50 µM | TGI (HL-60(TB) leukemia): > 50 µM | TGI (HOP-62 NSCLC): 15.6 µM | TGI (HOP-92 NSCLC): 16.8 µM | TGI (HS 578T breast): > 50 µM | TGI (HT29 colon): > 50 µM | TGI (IGROV1 ovarian): > 50 µM | TGI (K-562 leukemia): > 50 µM | TGI (KM12 colon): > 50 µM | TGI (LOX IMVI melanoma): > 50 µM | TGI (M14 melanoma): > 50 µM | TGI (MALME-3M melanoma): > 50 µM | TGI (MCF7 breast): > 50 µM | TGI (MDA-MB-231 breast): 40.9 µM | TGI (MDA-MB-435): > 50 µM | TGI (MDA-N): > 50 µM | TGI (MOLT-4 leukemia): > 50 µM | TGI (NCI-H226 lung): > 50 µM | TGI (NCI-H460 lung): > 50 µM | TGI (NCI-H522 lung): 31.6 µM | TGI (NCI/ADR-RES ovarian): > 50 µM | TGI (OVCAR-4 ovarian): > 50 µM | TGI (OVCAR-5 ovarian): > 50 µM | TGI (OVCAR-8 ovarian): > 50 µM | TGI (PC-3 prostate): > 50 µM | TGI (RPMI-8226 leukemia): > 50 µM | TGI (RXF 393 renal): > 50 µM | TGI (SF-268 CNS): > 50 µM | TGI (SF-295 CNS): 25.1 µM | TGI (SF-539 CNS): 26.7 µM | TGI (SK-MEL-2 melanoma): 38.6 µM | TGI (SK-MEL-28 melanoma): > 50 µM | TGI (SK-MEL-5 melanoma): > 50 µM | TGI (SK-OV-3 ovarian): > 50 µM | TGI (SN12C renal): > 50 µM | TGI (SNB-19 CNS): > 50 µM | TGI (SNB-75 CNS): 4.21 µM | TGI (SR leukemia): > 50 µM | TGI (SW-620 colon): > 50 µM | TGI (T-47D breast): > 50 µM | TGI (TK-10 renal): 21.8 µM | TGI (U251 CNS): 44.5 µM | TGI (UACC-257 melanoma): > 50 µM | TGI (UACC-62 melanoma): 24.3 µM | TGI (UO-31 renal): > 50 µM
